According to PubChem BioAssay (NCI):
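Values below derive from 48-hour exposures of cells grown in 96-well plates, with endpoints linearly interpolated between the two concentrations bracketing the appropriate inhibition level. GI50: concentration for 50% inhibition of growth. TGI: total growth inhibition.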

What was measured:
Assay in all cases: NCI tumour cell line growth inhibition, 48 h
T-47D breast = test system: T-47D breast
SR leukemia = test system: SR leukemia
DLD-1 colon = test system: DLD-1 colon
KM20L2 colon = test system: KM20L2 colon
XF 498 CNS = test system: XF 498 CNS
HOP-18 NSCLC = test system: HOP-18 NSCLC
M19-MEL melanoma = test system: M19-MEL melanoma
SN12K1 renal = test system: SN12K1 renal
P388 leukemia = test system: P388 leukemia
RXF-631 renal = test system: RXF-631 renal

Compound | TGI (T-47D breast) | TGI (SR leukemia) | TGI (DLD-1 colon) | TGI (KM20L2 colon) | TGI (XF 498 CNS) | TGI (HOP-18 NSCLC) | TGI (M19-MEL melanoma) | other results
COC1/C=C\OC2(C)Oc3c(C)c(O)c4c(O)c(c(/C=N\OCCCc5ccccc5)c(O)c4c3C2=O)NC(=O)/C(C)=C\C=C/C(C)C(O)C(C)C(O)C(C)C(OC(C)=O)C1C (centres undefined) | 15.6 µM | 5.98 µM |  |  |  |  |  | 
CCN=C=NCCCN(C)C |  | > 100 µM |  |  |  |  |  | 
CN1CCC(C(=O)NNc2ccccc2)CC1 |  | > 100 µM | > 100 µM | > 33.6 µM | > 100 µM | > 100 µM | > 79.7 µM | 
COc1ccc(-c2nn(-c3ccc(NC(=O)Nc4ccc(Cl)c(Cl)c4)cc3)cc2-c2ccncc2)cc1Cl | > 100 µM | 35.6 µM |  |  |  |  |  | GI50 (T-47D breast): 3.24 µM; GI50 (SR leukemia): 2.65 µM
c1ccc(-n2cnnc2-c2nsc3ccccc23)cc1 |  |  |  | > 100 µM |  | > 100 µM | > 100 µM | 
C=C1CC23CCC4C(C)(C(=O)O)CCCC4(C)C2CCC1C3 (centres undefined) | > 100 µM | 90.9 µM |  |  |  |  |  | 
O=C(O)CC(C(=O)O)C1c2ccccc2-c2ccccc21 (centres undefined) | > 100 µM | > 100 µM |  |  |  |  |  | 
O=Nc1ccc(O)c2ncccc12 | 33.1 µM | > 100 µM | 25.3 µM | 89.9 µM |  | 51.8 µM | 16.4 µM | 
Nc1cc(S(=O)(=O)O)cc2cc(S(=O)(=O)O)c(N=Nc3ccc(-c4ccc(N=Nc5c(S(=O)(=O)O)cc6cc(S(=O)(=O)O)cc(N)c6c5O)cc4)cc3)c(O)c12 |  |  | > 100 µM | > 100 µM | > 100 µM | > 100 µM | > 100 µM | TGI (SN12K1 renal): > 100 µM; TGI (P388 leukemia): > 100 µM
OC(Cc1ccccc1)(Cc1ccccc1)c1ccccc1 | > 100 µM | 80.8 µM |  |  |  |  |  | 
C=C(C)C(=O)OC1C(C(C)CCCO)=C(CO)CC2OC(=O)C(=C)C21 (centres undefined) | 45.5 µM | > 100 µM |  |  |  |  |  | 
C=C1C(=O)OC2/C=C(\C)C(=O)CC3OC(C)(C)OC3(C)CC(OC(=O)/C(C)=C/C)C12 (centres undefined) | > 64.6 µM |  |  |  |  |  |  | 
O=[N+]([O-])c1ccc(/C=N\Nc2ccc([N+](=O)[O-])cn2)cc1 | > 100 µM |  |  |  |  |  |  | 
C=C(CN(C)C)C(=O)c1ccc(C)cc1C | 18.6 µM | 4.26 µM | 14.2 µM | 39 µM | 27.6 µM | 30.3 µM | 43.1 µM | TGI (RXF-631 renal): 36.9 µM
O=S(=O)(O)c1cc(N=Nc2cc(S(=O)(=O)O)c3ccccc3c2O)ccc1/C=C/c1ccc(N=Nc2cc(S(=O)(=O)O)c3ccccc3c2O)cc1S(=O)(=O)O | > 1000 µM | 70.6 µM | > 1000 µM |  | > 1000 µM |  | > 1000 µM | GI50 (DLD-1 colon): > 1000 µM; GI50 (XF 498 CNS): > 1000 µM; GI50 (M19-MEL melanoma): > 1000 µM; GI50 (SR leukemia): 32.8 µM
C=C(C)C1CC2=C(O1)C(=O)c1ccccc1C2=O (centres undefined) |  |  | 52.1 µM |  | 32.2 µM |  |  | TGI (RXF-631 renal): 40.3 µM
